Experimental data taken from US12139499B2, “Heteroaryl compounds for treating Huntington's disease” (PTC THERAPEUTICS, INC., priority 2018, dated 2024).

Test system: Endogenous Huntingtin Protein
Assay: Endogenous Huntingtin Protein Assay (ELISA-based MSD electrochemiluminescence)
Type: cell-based
Details: Table 1
Description: Compounds of Formula (I) or Formula (II) were tested using the Meso Scale Discovery (MSD) Assay provided in International Application No. PCT/US2016/066042, filed on Dec. 11, 2016 and claiming priority to U.S. Provisional Application 62/265,652 filed on Dec. 10, 2015, the entire contents of which are incorporated herein by reference.
The Endogenous Huntingtin Protein assay used in Example 1 was developed using the ELISA-based MSD electrochemiluminescence assay platform.
Endogenous Huntingtin Protein Assay
Meso Scale Discovery (MSD) 96-well or 384-well plates were coated overnight at 4° C. with MW1 (expanded polyglutamine) or MAB2166 monoclonal antibody (for capture) at a concentration of 1 μg/mL in PBS (30 μL per well). Plates were then washed three times with 300 μL wash buffer (0.05% Tween-20 in PBS) and blocked (100 μL blocking buffer; 5% BSA in PBS) for 4-5 hours at room temperature with rotational shaking and then washed three times with wash buffer.
Samples (25 μL) were transferred to the antibody-coated MSD plate and incubated overnight at 4° C. After removal of the lysates, the plate was washed three times with wash buffer, and 25 μL of #5656S (Cell signaling; rabbit monoclonal) secondary antibody (diluted to 0.25 μg/mL in 0.05% Tween-20 in blocking buffer) was added to each well and incubated with shaking for 1 Hour at room temperature. Following incubation with the secondary antibody, the wells were rinsed with wash buffer after which 25 μL of goat anti-rabbit SULFO TAG secondary detection antibody (required aspect of the MSD system) (diluted to 0.25 μg/mL in 0.05% Tween-20 in blocking buffer) was added to each well and incubated with shaking for 1 hour at room temperature. After rinsing three times with wash buffer, 150 μL of read buffer T with surfactant (MSD) were added to each empty well, and the plate was imaged on a SI 6000 imager (MSD) according to manufacturers' instructions provided for 96- or 384-well plates.

IC50 [nM]	Compound
≤ 100	Cc1nc2ccc(-c3cc(F)c4nc(C5CCNCC5)sc4c3)cc2o1 [Compound 70, 6-[4-fluoro-2-(piperidin-4-yl)-1,3-benzothiazol-6-yl]-2-methyl-1,3-benzoxazole]
≤ 100	Cn1cc2cc(-c3cc(F)c4nc(C5CCNCC5)sc4c3)ccc2n1 [Compound 73, 4-fluoro-6-(2-methyl-2H-indazol-5-yl)-2-(piperidin-4-yl)-1,3-benzothiazole]
≤ 100	Cn1cc2cc(-c3cc4sc(C5CCNCC5)nc4cn3)cc(C#N)c2n1 [Compound 74, 2-methyl-5-[2-(piperidin-4-yl)[1,3]thiazolo[4,5-c]pyridin-6-yl]-2H-indazole-7-carbonitrile]
100 to 500	CCc1cc(-c2cc3sc(C4CCNCC4)nc3cn2)cc2cn(C)nc12 [Compound 75, 6-(7-ethyl-2-methyl-2H-indazol-5-yl)-2-(piperidin-4-yl)[1,3]thiazolo[4,5-c]pyridine]
100 to 500	Cn1cc2cc(-c3cc4sc(C5CCNCC5)nc4cn3)cc(F)c2n1 [Compound 76, 6-(7-fluoro-2-methyl-2H-indazol-5-yl)-2-(piperidin-4-yl)[1,3]thiazolo[4,5-c]pyridine]
100 to 500	Cc1cn2cc(-c3cc4sc(C5CCNCC5)nc4cn3)ccc2n1 [Compound 77, 6-(2-methylimidazo[1,2-a]pyridin-6-yl)-2-(piperidin-4-yl)[1,3]thiazolo[4,5-c]pyridine]
500 to 1000	Fc1cc(-c2ccc3[nH]ncc3n2)cc2sc(C3CCNCC3)nc12 [Compound 78, 5-[4-fluoro-2-(piperidin-4-yl)-1,3-benzothiazol-6-yl]-1H-pyrazolo[4,3-b]pyridine]
≤ 100	Cn1cc2nc(-c3cc(F)c4nc(C5CCNCC5)sc4c3)ccc2n1 [Compound 79, 5-[4-fluoro-2-(piperidin-4-yl)-1,3-benzothiazol-6-yl]-2-methyl-2H-pyrazolo[4,3-b]pyridine]
100 to 500	Cc1cn2cc(-c3ccc4nc(C5CCNCC5)sc4c3)ccc2n1 [Compound 82, 6-(2-methylimidazo[1,2-a]pyridin-6-yl)-2-(piperidin-4-yl)-1,3-benzothiazole]
≤ 100	Cn1cc2cc(-c3ccc4nc(C5CCNCC5)sc4c3)cc(F)c2n1 [Compound 83, 6-(7-fluoro-2-methyl-2H-indazol-5-yl)-2-(piperidin-4-yl)-1,3-benzothiazole]
≤ 100	Cn1cc2cc(-c3ccc4nc(C5CCNCC5)sc4c3)cc(C#N)c2n1 [Compound 84, 2-methyl-5-[2-(piperidin-4-yl)-1,3-benzothiazol-6-yl]-2H-indazole-7-carbonitrile]
100 to 500	CCc1cc(-c2ccc3nc(C4CCNCC4)sc3c2)cc2cn(C)nc12 [Compound 85, 6-(7-ethyl-2-methyl-2H-indazol-5-yl)-2-(piperidin-4-yl)-1,3-benzothiazole]
≤ 100	Cc1cn2nc(-c3cc(F)c4nc(C5CCN(C)CC5)sc4c3)ccc2n1 [Compound 92, 6-[4-fluoro-2-(1-methylpiperidin-4-yl)-1,3-benzothiazol-6-yl]-2-methylimidazo[1,2-b]pyridazine]
≤ 100	Cc1nc2c(C)cc(-c3ccc4nc(C5CCNCC5)sc4c3)cc2[nH]1 [Compound 94, 6-(2,4-dimethyl-1H-benzimidazol-6-yl)-2-(piperidin-4-yl)-1,3-benzothiazole]
100 to 500	Cc1nc2ccc(-c3ccc4nc(C5CCNCC5)sc4c3)cc2[nH]1 [Compound 95, 6-(2-methyl-1H-benzimidazol-6-yl)-2-(piperidin-4-yl)-1,3-benzothiazole]
≤ 100	Cc1cn2nc(-c3ccc4nc(C5CCNCC5)sc4c3)ccc2n1 [Compound 97, 2-methyl-6-[2-(piperidin-4-yl)-1,3-benzothiazol-6-yl]imidazo[1,2-b]pyridazine]

Compound	IC50 [nM]
Cc1cn2cc(-c3cc(F)c4nc(C5=CCNCC5)sc4c3)cc(C)c2n1 [Compound 71, 6-(2,8-dimethylimidazo[1,2-a]pyridin-6-yl)-4-fluoro-2-(1,2,3,6-tetrahydropyridin-4-yl)-1,3-benzothiazole]	100 to 500
Cn1cc2cc(-c3cc(F)c4nc(C5=CCNCC5)sc4c3)ccc2n1 [Compound 72, 4-fluoro-6-(2-methyl-2H-indazol-5-yl)-2-(1,2,3,6-tetrahydropyridin-4-yl)-1,3-benzothiazole]	100 to 500
CN(c1nc2ccc(-c3cc(C4CC4)c4nn(C)cc4c3)cc2s1)C1CC(C)(C)NC(C)(C)C1 [Compound 80, 6-(7-cyclopropyl-2-methyl-2H-indazol-5-yl)-N-methyl-N-(2,2,6,6-tetramethylpiperidin-4-yl)-1,3-benzothiazol-2-amine]	1000 to 3000
CC1CC(N(C)c2nc3ccc(-c4ccc5nn(C)cc5c4)cc3s2)CCN1 (stereo not shown) [Compound 81, N-methyl-6-(2-methyl-2H-indazol-5-yl)-N-(2-methylpiperidin-4-yl)-1,3-benzothiazol-2-amine]	100 to 500
CN(c1nc2cnc(-c3cc(F)c4nn(C)cc4c3)cc2s1)C1CC(C)(C)NC(C)(C)C1 [Compound 86, 6-(7-fluoro-2-methyl-2H-indazol-5-yl)-N-methyl-N-(2,2,6,6-tetramethylpiperidin-4-yl)[1,3]thiazolo[4,5-c]pyridin-2-amine]	≤ 100
Cc1cn2cc(-c3cc4sc(N(C)C5CC(C)(C)NC(C)(C)C5)nc4cn3)ccc2n1 [Compound 87, N-methyl-6-(2-methylimidazo[1,2-a]pyridin-6-yl)-N-(2,2,6,6-tetramethylpiperidin-4-yl)[1,3]thiazolo[4,5-c]pyridin-2-amine]	≤ 100
Cc1cn2cc(-c3cc4sc(N(C)C5CC(C)(C)NC(C)(C)C5)nc4cn3)cc(C)c2n1 [Compound 88, 6-(2,8-dimethylimidazo[1,2-a]pyridin-6-yl)-N-methyl-N-(2,2,6,6-tetramethylpiperidin-4-yl)[1,3]thiazolo[4,5-c]pyridin-2-amine]	≤ 100
Cc1cn2nc(-c3cc4sc(N(C)C5CC(C)(C)NC(C)(C)C5)nc4cn3)ccc2n1 [Compound 89, N-methyl-6-(2-methylimidazo[1,2-b]pyridazin-6-yl)-N-(2,2,6,6-tetramethylpiperidin-4-yl)[1,3]thiazolo[4,5-c]pyridin-2-amine]	500 to 1000
Cc1cn2nc(-c3cc4sc(N(C)C5CC(C)(C)NC(C)(C)C5)nc4cn3)cc(C)c2n1 [Compound 90, 6-(2,8-dimethylimidazo[1,2-b]pyridazin-6-yl)-N-methyl-N-(2,2,6,6-tetramethylpiperidin-4-yl)[1,3]thiazolo[4,5-c]pyridin-2-amine]	100 to 500
CN(c1nc2c(F)cc(-c3cc(C#N)c4nn(C)cc4c3)cc2s1)C1CC(C)(C)NC(C)(C)C1 [Compound 91, 5-{4-fluoro-2-[methyl(2,2,6,6-tetramethylpiperidin-4-yl)amino]-1,3-benzothiazol-6-yl}-2-methyl-2H-indazole-7-carbonitrile]	≤ 100
CCc1cc(-c2ccc3nc(N(C)C4CC(C)(C)NC(C)(C)C4)sc3c2)cn2cc(C)nc12 [Compound 93, 6-(8-ethyl-2-methylimidazo[1,2-a]pyridin-6-yl)-N-methyl-N-(2,2,6,6-tetramethylpiperidin-4-yl)-1,3-benzothiazol-2-amine]	100 to 500
Cc1cn2cc(-c3ccc4nc(N(C)C5CC(C)(C)NC(C)(C)C5)sc4c3)cc(C(F)(F)F)c2n1 [Compound 96, N-methyl-6-[2-methyl-8-(trifluoromethyl)imidazo[1,2-a]pyridin-6-yl]-N-(2,2,6,6-tetramethylpiperidin-4-yl)-1,3-benzothiazol-2-amine]	100 to 500
